Source: patent US9926319B2, “Pyridyl piperidines” (MERCK PATENT GMBH, priority 2014, dated 2018)

Key:
Wnt pathway = assay: Cellular assay for Wnt pathway activity (luciferase reporter cell based assay); settings: 24 h, HEK293 luciferase reporter cell line (ER-DSH, TCF dependent promoter), induced with estrogen (1 μM), read-out: 7df3 IC50
[1] = CLint (intrinsic clearance) assay, microsomal incubation; type: in vitro ADME, Human; settings: NADPH, 37° C., up to 30 min; for microsomal CLint at 0.8 μM: human, liver microsomes, pH 7.4, human liver microsomes 0.5 mg/mL protein; for Human Clint: human liver microsomes 0.5 mg/mL protein
Experimental: 2. CLint (Intrinsic Clearance) Assay
A Tecan Genesis workstation (RWS ASY 150/8) was used to perform the microsomal incubations. Analysis was carried out using a Waters ACQUITY UPLC system coupled to an ABSciex API3000 mass spectrometer. Data analysis was performed using Assay Explorer (Symyx).
0.1 M potassium phosphate buffer pH 7.4 containing 1 mM MgCl2
15 mM NADPH in phosphate buffer
5.0 mg protein/mL liver microsomes in phosphate buffer
Each experiment consists of 12 test and 2 reference compounds. The reference compounds are incubated as a cocktail.
Dilution of test compounds was done in 2 steps from a 10 mM DMSO stock solution. First 4 μL stock solution was added to 196 μL of 20% DMSO in potassium phosphate buffer pH 7.4. In a second step 10 μL of the first dilution were added to […] potassium phosphate buffer and 100 μL internal standard solution to a final concentration of 0.8 μM. 100 μL of the final compound dilution were aliquoted into a 96 deep well plate. 12.5 μL liver microsomes were added to each well (0.5 mg/mL final protein concentration) and the samples preincubated for 5 min at 37° C. and 800 rpm agitation.
After the preincubation, 250 μL cold acetonitrile were added to the 0 min samples to prevent a reaction. Following this, 12.5 μL NADPH solution were added to all wells to start the incubation, with the exception of the 0 min and 30 min controls without cofactor, where the NADPH was substituted for phosphate buffer.
The incubations were stopped after 5, 10, 20 and 30 min by adding 250 μL cold acetonitrile to the individual wells.
The quenched samples were then centrifuged at 4000 g for 1 h at 4° C. 100 μL of the supernatant were transferred into 96 well plates for analysis.
The metabolic stability of each compound was determined by measurement of the change in LC-MS/MS peak area over time. Assay Explorer software was used to automatically calculate the slope k of the decline. The intrinsic clearance (CLint) of each compound was then calculated according to the formula: CLint(μL/min/mg protein)=k1000/protein concentration.
CLint is shown for each compound in Table 3 below.

SMILES	IC50 (Wnt pathway) [nM]	microsomal CLint at 0.8 μM [1] [µL/min/mg]	Human Clint [1] [µL/min/mg]
O=C1NCCC12CCN(c1c(Cl)cncc1-c1ccc3oc(=O)[nH]c3c1)CC2 [Example 3, 5-[5-Chloro-4-(1-oxo-2,8-diaza-spiro[4.5]dec-8-yl)-pyridin-3-yl]-3H-benzooxazol-2-one]	4.4	35	–
CN1c2ccc(-c3cncc(Cl)c3N3CCC4(CC3)CC(=O)NN4)cc2CS1(=O)=O [Example 30, 8-[3-Chloro-5-(1-methyl-2,2-dioxo-2,3-dihydro-1H-2l6-benzo[c]isothiazol-5-yl)-pyridin-4-yl]-1,2,8-triaza-spiro[4.5]decan-3-one]	13	27	–
CC1=NNC(=O)C12CCN(c1c(Cl)cncc1-c1ccc3c(c1)CS(=O)(=O)N3C)CC2 [Example 41, 8-[3-Chloro-5-(1-methyl-2,2-dioxo-2,3-dihydro-1H-2l6-benzo[c]isothiazol-5-yl)-pyridin-4-yl]-4-methyl-2,3,8-triaza-spiro[4.5]dec-3-en-1-one]	–	–	85
Cn1cc(-c2ccc(-c3cncc(C(F)(F)F)c3N3CCC4(CC3)CNC(=O)O4)cc2)cn1 [Example 35, 8-{3-[4-(1-Methyl-1H-pyrazol-4-yl)-phenyl]-5-trifluoromethyl-pyridin-4-yl}-1-oxa-3,8-diaza-spiro[4.5]decan-2-one]	–	< 10	–
Cn1cc(-c2ccc(-c3cncc(Cl)c3N3CCC4(CC3)CNC(=O)O4)cc2)cn1 [Example 9, 8-{3-Chloro-5-[4-(1-methyl-1H-pyrazol-4-yl)-phenyl]-pyridin-4-yl}-1-oxa-3,8-diaza-spiro[4.5]decan-2-one]	–	–	40
Cn1nc(N)c2ccc(-c3cncc(Cl)c3N3CCC4(CCNC4=O)CC3)cc21 [Example 24, 8-[3-(3-Amino-1-methyl-1H-indazol-6-yl)-5-chloro-pyridin-4-yl]-2,8-diaza-spiro[4.5]decan-1-one]	–	–	78
CNc1n[nH]c2cc(-c3cncc(Cl)c3N3CCC4(CCNC4=O)CC3)ccc12 [Example 34, 8-[3-Chloro-5-(3-methylamino-1H-indazol-6-yl)-pyridin-4-yl]-2,8-diaza-spiro[4.5]decan-1-one]	–	–	52
Cn1cc(-c2ccc(-c3cncc(C(F)(F)F)c3N3CCC4(CCNC4=O)CC3)cc2)cn1 [Example 45, 8-{3-[4-(1-Methyl-1H-pyrazol-4-yl)-phenyl]-5-trifluoromethyl-pyridin-4-yl}-2,8-diaza-spiro[4.5]decan-1-one]	–	–	81
Cn1cc(-c2ccc(-c3cncc(Cl)c3N3CCC4(CC3)NC(=O)NC4=O)cc2)cn1 [Example 13, 8-{3-Chloro-5-[4-(1-methyl-1H-pyrazol-4-yl)-phenyl]-pyridin-4-yl}-1,3,8-triaza-spiro[4.5]decane-2,4-dione]	–	< 10	–
CN1c2ccc(-c3cncc(Cl)c3N3CCC4(CC3)NC(=O)NC4=O)cc2CS1(=O)=O [Example 37, 8-[3-Chloro-5-(1-methyl-2,2-dioxo-2,3-dihydro-1H-2l6-benzo[c]isothiazol-5-yl)-pyridin-4-yl]-1,3,8-triaza-spiro[4.5]decane-2,4-dione]	–	–	11
Cc1nc(-c2ccc(-c3cncc(Cl)c3N3CCC4(CCNC4=O)CC3)cc2)cn1C [Example 18, 8-{3-Chloro-5-[4-(1,2-dimethyl-1H-imidazol-4-yl)-phenyl]-pyridin-4-yl}-2,8-diaza-spiro[4.5]decan-1-one]	–	–	13
Nc1n[nH]c2cc(-c3cncc(Cl)c3N3CCC4(CCNC4=O)CC3)ccc12 [Example 7, 8-[3-(3-Amino-1H-indazol-6-yl)-5-chloro-pyridin-4-yl]-2,8-diaza-spiro[4.5]decan-1-one]	–	–	27
O=C1NCCC12CCN(c1c(Cl)cncc1-c1ccc(-c3cnn(CCO)c3)cc1)CC2 [Example 5, 8-(3-Chloro-5-{4-[1-(2-hydroxy-ethyl)-1H-pyrazol-4-yl]-phenyl}-pyridin-4-yl)-2,8-diaza-spiro[4.5]decan-1-one]	–	–	40

The next lines start with the values.

IC50 (Wnt pathway) [nM]	microsomal CLint at 0.8 μM [1] [µL/min/mg]	Human Clint [1] [µL/min/mg]	SMILES
1.4	65	–	Cn1cc(-c2ccc(-c3cncc(Cl)c3N3CCC4(CC3)C(=O)Nc3cccnc34)cc2)cn1 [Example 68]
18	32	–	O=C1NCC2(CCN(c3c(Cl)cncc3-c3ccc(-c4cnn([C@H]5CCC[C@@H]5O)c4)cc3)CC2)O1 (racemic) [Example 57, 8-(3-Chloro-5-{4-[1-((1S,2S)-2-hydroxy-cyclopentyl)-1H-pyrazol-4-yl]-phenyl}-pyridin-4-yl)-1-oxa-3,8-diaza-spiro[4.5]decan-2-one]
4.5	< 10	–	CCn1cc2cc(-c3cncc(Cl)c3N3CCC4(CC3)CNC(=O)O4)ccc2n1 [Example 95, 8-[3-Chloro-5-(2-ethyl-2H-indazol-5-yl)-pyridin-4-yl]-1-oxa-3,8-diaza-spiro[4.5]decan-2-one]
8.8	66	–	O=C1CC2(CCN(c3c(Cl)cncc3-c3ccc(N4CCOCC4)cc3)CC2)C(=O)N1 [Example 90, 8-[3-Chloro-5-(4-morpholin-4-yl-phenyl)-pyridin-4-yl]-2,8-diaza-spiro[4.5]decane-1,3-dione]
–	–	23	CC(C)(O)Cn1cc(-c2ccc(-c3cncc(Cl)c3N3CCC4(CCNC4=O)CC3)cc2)cn1 [Example 47, 8-(3-Chloro-5-{4-[1-(2-hydroxy-2-methyl-propyl)-1H-pyrazol-4-yl]-phenyl}-pyridin-4-yl)-2,8-diaza-spiro[4.5]decan-1-one]
17	38	–	Cn1ncc2cc(-c3cncc(Cl)c3N3CCC4(CC3)C(=O)NN=C4C(F)(F)F)ccc21 [Example 61, 8-[3-Chloro-5-(1-methyl-1H-indazol-5-yl)-pyridin-4-yl]-4-trifluoromethyl-2,3,8-triaza-spiro[4.5]dec-3-en-1-one]
30	29	–	O=C1NCC2(CCN(c3c(Cl)cncc3-c3ccc(-c4cnn([C@@H]5CCC[C@H]5O)c4)cc3)CC2)O1 [Example 63, 8-(3-Chloro-5-{4-[1-((1R,2R)-2-hydroxy-cyclopentyl)-1H-pyrazol-4-yl]-phenyl}-pyridin-4-yl)-1-oxa-3,8-diaza-spiro[4.5]decan-2-one]
–	–	16	CC1=NC2(CCN(c3c(Cl)cncc3-c3ccc4c(c3)CS(=O)(=O)N4C)CC2)C(=O)N1 [Example 46, 8-[3-Chloro-5-(1-methyl-2,2-dioxo-2,3-dihydro-1H-2l6-benzo[c]isothiazol-5-yl)-pyridin-4-yl]-2-methyl-1,3,8-triaza-spiro[4.5]dec-1-en-4-one]
–	–	20	CN1C(=O)NC(=O)C12CCN(c1c(Cl)cncc1-c1ccc(-c3cnn(C)c3)cc1)CC2 [Example 49, 8-{3-Chloro-5-[4-(1-methyl-1H-pyrazol-4-yl)-phenyl]-pyridin-4-yl}-1-methyl-1,3,8-triaza-spiro[4.5]decane-2,4-dione]
8.2	–	–	Cn1ncc2cc(-c3cncc(Cl)c3N3CCC4(CCNC4=O)CC3)ccc21 [Example 91, 8-[3-Chloro-5-(1-methyl-1H-indazol-5-yl)-pyridin-4-yl]-2,8-diaza-spiro[4.5]decan-1-one]
–	–	89	CN1c2ccc(-c3cncc(Cl)c3N3CCC4(CC3)C(=O)NN=C4C(F)(F)F)cc2CS1(=O)=O [Example 58, 8-[3-Chloro-5-(1-methyl-2,2-dioxo-2,3-dihydro-1H-2l6-benzo[c]isothiazol-5-yl)-pyridin-4-yl]-4-trifluoromethyl-2,3,8-triaza-spiro[4.5]dec-3-en-1-one]
–	–	18	CN1c2ccc(-c3cncc(F)c3N3CCC4(CC3)CNC(=O)O4)cc2CS1(=O)=O [Example 80, 8-[3-Fluoro-5-(1-methyl-2,2-dioxo-2,3-dihydro-1H-2l6-benzo[c]isothiazol-5-yl)-pyridin-4-yl]-1-oxa-3,8-diaza-spiro[4.5]decan-2-one]
2.2	–	–	Cn1cc(-c2ccc(-c3cncc(Cl)c3N3CCC4(CC3)CC(=O)NC4=O)cc2)cn1 [Example 86, 8-{3-Chloro-5-[4-(1-methyl-1H-pyrazol-4-yl)-phenyl]-pyridin-4-yl}-2,8-diaza-spiro[4.5]decane-1,3-dione]
41	–	–	Cn1ccc(-c2ccc(-c3cncc(Cl)c3N3CCC4(CCNC4=O)CC3)cc2)n1 [Example 67, 8-{3-Chloro-5-[4-(1-methyl-1H-pyrazol-3-yl)-phenyl]-pyridin-4-yl}-2,8-diaza-spiro[4.5]decan-1-one]
